Data published in patent US12435032B2, “L-γ-methyleneglutamine compounds and methods of use” (University of Mississippi, priority 2019, dated 2025).
Where two headings read alike, the source gives them in different places.

Legend:
[1] = tested on: MCF-7 (ER+/PR+/HER2−) breast cancer cells; assay: Growth inhibition of MCF-7 cells (Hoechst 33342 fluorescence vs non-treated wells); type: cell-based; conditions: Homo sapiens, dose-response 0.32-320 μM
Protocol: (§1) Olaparib was chosen because it is one of a few FDA-approved chemotherapeutics for triple-negative breast cancer.
(§2) Cells were incubated for 15 minutes at 37° C.

[2] = tested on: SK-BR-3 (ER−/PR−/HER2+) breast cancer cells; assay: Growth inhibition of SK-BR-3 cells; type: cell-based; conditions: Homo sapiens, dose-response 0.32-320 μM
Protocol: as §1, §2

[3] = tested on: triple-negative MDA-MB-231 breast cancer cells; assay: Growth inhibition of MDA-MB-231 cells; type: cell-based; conditions: dose-response 0.32-320 μM; for IC50: Homo sapiens
Protocol: as §1, §2

[4] = tested on: MCF-10A non-cancerous breast cells; assay: Growth inhibition of MCF-10A cells (negative control line); type: cell-based; conditions: Homo sapiens, dose-response 0.32-320 μM
Protocol: as §1, §2

[5] = tested on: MCF-7 breast cancer cells; assay: Cytotoxicity (cell death, propidium iodide) in MCF-7 cells; type: cell-based; conditions: Homo sapiens, MCF7, dose-response 0.32-320 μM, read-out: Cytotoxicity EC50
[6] = tested on: SK-BR-3 breast cancer cells; assay: Cytotoxicity (cell death, propidium iodide) in SK-BR-3 cells; type: cell-based; conditions: for EC50: Homo sapiens, dose-response 0.32-320 μM
[7] = Cytotoxicity (cell death, propidium iodide) in MCF-10A cells; type: cell-based; conditions: human, MCF-10A non-cancerous breast cells
Protocol: To assess the selectivity of cytotoxicity for cancer cells, all drugs and compounds were screened against MCF-10A, non-cancerous breast cells.
as §2

[8] = tested on: triple-negative MDA-MB-231 breast cancer cells
[9] = tested on: triple-negative MDA-MB-231 breast cancer cells; assay: cells; conditions: Homo sapiens, read-out: Cytotoxicity EC50

Which results are given for `C=C(C[C@H](N)C(=O)O)C(=O)Nc1ccccc1` [Compound 3, (S)-2-amino-4-(phenylcarbamoyl) pent-4-enoic acid]?
IC50 ([1]; MCF7, 24 h, MCF-7, 24 h exposure): > 1000 µM; IC50 ([1]; MCF7, 72 h, MCF-7, 72 h exposure): 250 µM; IC50 ([2]; SK-BR-3, 24 h exposure): 36.9 µM; IC50 ([2]; SK-BR-3, 72 h exposure): 1.7 µM; IC50 ([3]; MDA-MB-231, 24 h exposure): 777 µM; IC50 ([3]; MDA-MB-231, 72 h exposure): 814 µM; Growth Inhibition IC50 ([3]; MDA-MB-231, 72 h exposure): poorer potency than olaparib; IC50 ([4]; 24 h exposure): > 1000 µM; IC50 ([4]; 72 h exposure): > 1000 µM; EC50 ([5]; MCF-7, 24 h exposure): 421 µM; EC50 ([5]; MCF-7, 72 h exposure): 2 µM; EC50 ([6]; SK-BR-3, 24 h exposure): 0.2 µM; EC50 ([6]; SK-BR-3, 72 h exposure): > 1000 µM; cytotoxicity EC50 ([6]; SK-BR-3, 72 h / after the first 24 h): much reduced toxicity; EC50 at 24 h ([7]; 24 h exposure): > 1000 µM; EC50 at 24 h ([7]; head prints 24 h): > 1000 µM; cytotoxic EC50 compared with positive controls [8]: significantly greater than tamoxifen; EC50 ([9]; MDA-MB-231, 24 h): 541 µM; EC50 ([9]; MDA-MB-231, 72 h): 409 µM
